One series concerns erythrocytes. The series can be described thus: Lytic activity of QS21 on erythrocytes (hemolysis). In kind it is cell-based. The conditions noted are these: for lytic activity: expressed as μg QS21 equivalent for the same hemolysis, 5 μg QS21 (or digitonin). As for the experimental part:
When QS21 is added to erythrocytes, they lyse them releasing hemoglobin. This lytic activity can also be measured using liposomes which contain cholesterol in their membrane and an entrapped fluorescent dye, carboxyfluorescein—as the liposomes are lysed the dye is released which can be monitored by fluorescence spectroscopy.
If the QS21 first associates with cholesterol in liposomes it is no longer lyric towards cells or other liposomes.
In the presence of phospholipids the cholesterol resides within the phospholipid bilayer which can form a stable suspension of vesicles called liposomes. To avoid the requirement to add phospholipids a soluble derivative was tried.

Series [1] is classed as in vivo, rabbits. An excerpt: 1.6 Reactogenicity intra-muscularly in rabbits
Since the CPK increase is a measure of muscle damage this indicates decreased muscle damage and is confirmed by the histopathology.

A short description of series [2]: Binding of the liposome-QS21 complex to alum. The class given is physicochemical. The conditions noted are these: incubated with alum (Al(OH)3) in PBS.
Protocol: QS21 was incubated with neutral liposomes containing excess cholesterol as well as radioactive cholesterol and then incubated with alum (Al(OH)3) in PBS.
A short description of series [3]: Lytic activity of QS21 on fluorescent liposomes (carboxyfluorescein release). Particulars: fluorescent liposomes without cholesterol in their membrane. The protocol:
When QS21 is added to erythrocytes, they lyse them releasing hemoglobin. […]
The same holds true using fluorescent liposomes to measure the lytic activity.

Series [4] in a line: Base-mediated hydrolysis of QS21 monitored by reverse-phase HPLC. The class given is physicochemical. The conditions noted are these: pH 9, 37° C.
Description: This hydrolysis can be monitored by measuring the decrease in the peak corresponding to QS21 on reverse-phase HPLC.
A further series deals with HSV gD. Particulars: antigen gD (5 μg).

Here are results for three compounds from patent publication US6846489B1, “Vaccines containing a saponin and a sterol” (priority 1995, dated 2005).

As for `C[C@@H]1CC[C@@]2(OC1)O[C@H]1[C@@H](O)[C@H]3[C@@H]4CC[C@H]5C[C@@H](O[C@@H]6O[C@H](CO)[C@H](O[C@@H]7O[C@H](CO)[C@@H](O)[C@H](O[C@@H]8OC[C@@H](O)[C@H](O)[C@H]8O)[C@H]7O[C@@H]7O[C@H](CO)[C@H](O)[C@H](O[C@@H]8O[C@H](CO)[C@@H](O)[C@H](O)[C@H]8O)[C@H]7O)[C@H](O)[C@H]6O)[C@H](O)C[C@]5(C)[C@H]4CC[C@]3(C)[C@H]1[C@@H]2C` [digitonin], the lytic activity in the series with erythrocytes worked out at 5 µg.
Turning to QS21, in series [1] (QS21 associated with cholesterol-containing liposomes, Chol:QS21=6:1), the “toxicity in rabbits (by CPK)” value was “non-toxic”. For the same compound, in series [1] (mean of 5 rabbits), the “CPK Day0 Mean” value came out at 1369 U.I./L and the “CPK Day1 Mean” value was found to be 6261 U.I./L. The “CPK Day3 Mean” value in series [1] (mean, value in parentheses left out) worked out at 1212 U.I./L. In addition, the “lytic activity on erythrocytes” value in the series on erythrocytes (QS21 incubated with liposomes containing cholesterol before adding to erythrocytes, 1:1 ratio cholesterol to QS21) is listed as “no lytic activity is detected”. In addition, the lytic activity in the series on erythrocytes was 5 µg. The “binding to alum in PBS” value in series [2] was “neither neutral liposomes nor QS21 bind to alum”. Further, the “lysis of fluorescent liposomes” value in series [3] is “no lysis”. Also, the “hydrolysis of the QS21” value in series [4] (16 hours, liposomes containing cholesterol added 2:1 (chol:QS21 w/w)) is listed as “no hydrolysis”. The QS21 degraded in series [4] (16 hours, liposomes containing cholesterol, ratio 1:1) came out at 10%. In series [4] (within 16 hours, QS21 alone), this compound came in with a QS21 hydrolysed of 90%. Further, in the series on HSV gD, the “IgG1 %, isotypes 7 days post II” value is listed as 66%; the “IgG1, isotypes 7 days post II” value stood at 156 µg/mL; the “IgG2a %, isotypes 7 days post II” value is listed as 28%; the “IgG2a, isotypes 7 days post II” value was 67 µg/mL. For the same compound, in the series with HSV gD, the “IgG2b %, isotypes 7 days post II” value is reported as 6%; the “IgG2b, isotypes 7 days post II” value was determined as 14 µg/mL; the “IgG 7 post II (GMT)” value worked out at 3468; the “IgG 14 post II (GMT)” value amounted to 4132.
Regarding Polyoxyethanyl-cholesterol sebacate, the “reduction in the lytic activity of QS21” value in the series with erythrocytes (2000 fold excess (w/w) over QS21) is given as “no reduction”.
